Test results reported in PubChem BioAssay (NCI).
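In this assay, cells in 96-well plates receive the compound at five concentrations for 48 hours. Endpoints are linearly interpolated between the surrounding concentrations. At the TGI there is no net growth.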

Assays:
Assay in all cases: NCI tumour cell line growth inhibition, 48 h
DLD-1 colon = tested on: DLD-1 colon
P388 leukemia = tested on: P388 leukemia
SN12K1 renal = tested on: SN12K1 renal
LXFL 529 NSCLC = tested on: LXFL 529 NSCLC
MDA-N = tested on: MDA-N
BT-549 breast = tested on: BT-549 breast

COc1cc2c(cc1OC)C(C(c1ccccc1)c1ccccc1)N(C)CC2 (stereo unspecified)
TGI (DLD-1 colon): > 100 µM | TGI (P388 leukemia): > 100 µM | TGI (SN12K1 renal): > 65.6 µM

O=C1CCC(c2ccccc2)=NN1c1nsc2ccccc12
TGI (LXFL 529 NSCLC): > 100 µM

O=c1oc2cc(O)ccc2c(O)c1C(c1ccccc1)c1c(O)c2ccc(O)cc2oc1=O
TGI (MDA-N): > 100 µM | TGI (BT-549 breast): > 100 µM

COc1cccc(N2C(Cl)C(=O)C2c2c[nH]c3ccccc23)c1 (stereo unspecified)
TGI (LXFL 529 NSCLC): > 100 µM

C[N+](C)([O-])CCOc1cc2c(c3ccccc13)-c1ccccc1C2=O
TGI (DLD-1 colon): > 100 µM | TGI (P388 leukemia): > 100 µM | TGI (SN12K1 renal): 37.8 µM

O=C1CC2(CCC(O)(c3ccc4ccccc4c3)C(C(=O)c3ccc4ccccc4c3)C2)C(=O)c2ccccc2N1 (stereo unspecified)
TGI (BT-549 breast): > 100 µM
